According to patent publication US20240058422A1, “GLUCAGON-LIKE PEPTIDE-1 RECEPTOR ANTAGONISTS” (INDIANA UNIVERSITY RESEARCH AND TECHNOLOGY CORPORATION, priority 2022, published 2024):
In brackets after ≈: the same amount, converted by molar mass. Read-outs that look alike come from different tables or passages of the source. Starred links: 1 amine or outer side, 2 acyl side, 3 side chain; linkers in the order of their positions; H or OH if unused. Non-standard residues stand in square brackets, D forms with d. Residues, ends and D or L forms follow the SMILES beside them. Groups on a side chain read outwards from the residue. *: point of attachment. γGlu = O=C(O)[C@H](CCC(=O)[*:2])N[*:1]; Palmitoyl = CCCCCCCCCCCCCCCC(=O)*; AEEA = NCCOCCOCC(=O)O; Aib = CC(C)(N)C(=O)O

Columns and labels:
GLP-1R = GLP-1R (Homo sapiens, UniProt P43220); assay: GLP-1 receptor-mediated cAMP induction, luciferase reporter gene antagonism assay; format: cell-based; design: host or cells: HEK 293; conditions: antagonism of 0.05 nM GLP-1, HEK 293 cells
Sequence of GLP-1R (P43220 24-463): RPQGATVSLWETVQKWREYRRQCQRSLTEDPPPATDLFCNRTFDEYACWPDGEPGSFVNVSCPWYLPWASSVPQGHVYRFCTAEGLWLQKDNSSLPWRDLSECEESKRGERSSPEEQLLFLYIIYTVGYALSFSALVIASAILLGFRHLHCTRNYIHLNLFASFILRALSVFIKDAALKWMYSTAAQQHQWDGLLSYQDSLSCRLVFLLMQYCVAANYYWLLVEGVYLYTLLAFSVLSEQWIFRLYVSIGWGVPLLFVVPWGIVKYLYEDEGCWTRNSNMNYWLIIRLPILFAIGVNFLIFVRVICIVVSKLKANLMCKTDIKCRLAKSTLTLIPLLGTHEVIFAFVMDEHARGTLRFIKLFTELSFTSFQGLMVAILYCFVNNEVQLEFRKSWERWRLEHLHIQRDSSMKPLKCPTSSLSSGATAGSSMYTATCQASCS
In short: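 HEK 293 cells cotransfected with human GLP-1 receptor and CRE-luciferase were serum-deprived 16 h, then given serial peptide dilutions followed by 0.05 nM GLP-1 and incubated 5 h at 37° C.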

[1] = pH 7.7, Solubility [mg/mL] 80 mM AmBicarb pH7.7
[2] = Table 3, amino acid substitution variants of Jant4-K40, read-out: Bioactivity IC50
[3] = pH 7.7, Solubility 80 mM AmeBicarb pH7.7

Compound | IC50 (GLP-1R; [2]) | solubility (physchem; [3]) | other results
CCCCCCCCCCCCCCCC(=O)NCCCC[C@H](NC(=O)[C@H](CO)NC(=O)[C@@H]1CCCN1C(=O)[C@@H]1CCCN1C(=O)[C@@H]1CCCN1C(=O)[C@H](C)NC(=O)CNC(=O)[C@H](CO)NC(=O)[C@H](CO)NC(=O)[C@@H]1CCCN1C(=O)CNC(=O)CNC(=O)C(C)(C)NC(=O)[C@@H](NC(=O)[C@H](CCCCN)NC(=O)[C@H](Cc1c[nH]c2ccccc12)NC(=O)[C@H](C)NC(=O)[C@@H](NC(=O)[C@H](Cc1ccccc1)NC(=O)[C@H](CCC(=O)O)NC(=O)[C@H](CCCNC(=N)N)NC(=O)[C@@H](NC(=O)[C@H](C)NC(=O)[C@H](CCC(N)=O)NC(=O)[C@H](CCC(=O)O)NC(=O)[C@H](CCC(=O)O)NC(=O)[C@H](CC(C)C)NC(=O)[C@H](Cc1ccc(O)cc1)NC(=O)[C@H](CO)NC(=O)[C@H](CO)NC(=O)[C@@H](NC(=O)[C@@H](N)CC(=O)O)C(C)C)C(C)C)[C@@H](C)CC)C(C)C)C(N)=O [compound 82] (H-DVSSYLEEQAVREFIAWKV[Aib]GGPSSGAPPPSK(Palmitoyl)-NH2) |  |  | IC50 (GLP-1R; Table 4, Aib variants of 9-40am Jant4 K40[C16], read-out: Bioactivity IC50): 6 nM; solubility (physchem; [1]): 14.2 mg/mL (≈ 3.93 mM); solubility (physchem; pH 7.7, Solubility [mg/mL] PBS pH7.7): 0.1 mg/mL (≈ 0.0277 mM)
CCCCCCCCCCCCCCCC(=O)N[C@@H](CCC(=O)NCCOCCOCC(=O)NCCCC[C@H](NC(=O)[C@H](CO)NC(=O)[C@@H]1CCCN1C(=O)[C@@H]1CCCN1C(=O)[C@@H]1CCCN1C(=O)[C@H](C)NC(=O)CNC(=O)[C@H](CO)NC(=O)[C@H](CO)NC(=O)[C@@H]1CCCN1C(=O)CNC(=O)CNC(=O)[C@H](CCCNC(=N)N)NC(=O)[C@@H](NC(=O)[C@H](CC(C)C)NC(=O)[C@H](Cc1c[nH]c2ccccc12)NC(=O)[C@H](C)NC(=O)[C@@H](NC(=O)[C@H](Cc1ccccc1)NC(=O)[C@H](CCC(=O)O)NC(=O)[C@H](CCCNC(=N)N)NC(=O)[C@@H](NC(=O)[C@H](C)NC(=O)[C@H](CCC(N)=O)NC(=O)[C@H](CCC(=O)O)NC(=O)[C@H](CCC(=O)O)NC(=O)[C@H](CC(C)C)NC(=O)[C@H](Cc1ccc(O)cc1)NC(=O)[C@H](CO)NC(=O)[C@H](CO)NC(=O)[C@@H](NC(=O)[C@@H](N)CC(=O)O)C(C)C)C(C)C)[C@@H](C)CC)C(C)C)C(=O)O)C(=O)O [compound 77] (H-DVSSYLEEQAVREFIAWLVRGGPSSGAPPPSK([AEEA-γGlu-Palmitoyl])-OH) | 13 nM | > 20 mg/mL | 
CCCCCCCCCCCCCCCC(=O)NCCCC[C@H](NC(=O)[C@H](CO)NC(=O)[C@@H]1CCCN1C(=O)[C@@H]1CCCN1C(=O)[C@@H]1CCCN1C(=O)[C@H](C)NC(=O)CNC(=O)[C@H](CO)NC(=O)[C@H](CO)NC(=O)[C@@H]1CCCN1C(=O)CNC(=O)CNC(=O)[C@H](CCCCN)NC(=O)[C@@H](NC(=O)[C@H](CC(C)C)NC(=O)[C@H](Cc1c[nH]c2ccccc12)NC(=O)[C@H](C)NC(=O)[C@@H](NC(=O)[C@H](Cc1ccccc1)NC(=O)[C@H](CCC(=O)O)NC(=O)[C@H](CCCNC(=N)N)NC(=O)[C@H](NC(=O)[C@H](C)NC(=O)[C@H](CCC(N)=O)NC(=O)[C@H](CCC(=O)O)NC(=O)[C@H](CCC(=O)O)NC(=O)[C@H](CC(C)C)NC(=O)[C@H](Cc1ccc(O)cc1)NC(=O)[C@H](CO)NC(=O)[C@H](CO)NC(=O)[C@@H](NC(=O)[C@@H](N)CC(=O)O)C(C)C)C(C)C)[C@@H](C)CC)C(C)C)C(N)=O [compound 50] (H-DVSSYLEEQA[dV]REFIAWLVKGGPSSGAPPPSK(Palmitoyl)-NH2) |  |  | IC50 (GLP-1R; Table 5, d-AA variants of 9-40am Jant4 K40[C16], read-out: Bioactivity KC50): 124 nM; solubility (physchem; pH 7.7, Solubility [mg/mL] 80 mM/AmBicarb pH7.7): > 20 mg/mL
H-DVSSYLEEQAVREFIAWLVKGGPSSGAPPPSK-NH2 [compound 95] |  |  | IC50 (GLP-1R; Table 2, C16 linker variants of 9-40amide Jant4 K40[X], read-out: Biactivity IC50): 281 nM; solubility (physchem; [1]): 12.7 mg/mL
CCCCCCCCCCCCCCCC(=O)N[C@@H](CCC(=O)NCCOCCOCC(=O)NCCCC[C@H](NC(=O)[C@H](CO)NC(=O)[C@@H]1CCCN1C(=O)[C@@H]1CCCN1C(=O)[C@@H]1CCCN1C(=O)[C@H](C)NC(=O)CNC(=O)[C@H](CO)NC(=O)[C@H](CO)NC(=O)[C@@H]1CCCN1C(=O)CNC(=O)CNC(=O)[C@H](CCCNC(=N)N)NC(=O)[C@@H](NC(=O)[C@H](CC(C)C)NC(=O)[C@H](Cc1c[nH]c2ccccc12)NC(=O)[C@H](CCC(=O)O)NC(=O)[C@@H](NC(=O)[C@H](Cc1ccccc1)NC(=O)[C@H](CCC(=O)O)NC(=O)[C@H](CCCNC(=N)N)NC(=O)[C@@H](NC(=O)[C@H](C)NC(=O)[C@H](CCC(N)=O)NC(=O)[C@H](CCC(=O)O)NC(=O)[C@H](CCC(=O)O)NC(=O)[C@H](CC(C)C)NC(=O)[C@H](Cc1ccc(O)cc1)NC(=O)[C@H](CO)NC(=O)[C@H](CO)NC(=O)[C@@H](NC(=O)[C@@H](N)CC(=O)O)C(C)C)C(C)C)[C@@H](C)CC)C(C)C)C(=O)O)C(=O)O [compound 78] (H-DVSSYLEEQAVREFIEWLVRGGPSSGAPPPSK([AEEA-γGlu-Palmitoyl])-OH; N-terminus assumed) | 19 nM | > 20 mg/mL | 
CCCCCCCCCCCCCCCC(=O)NCCCC[C@H](NC(=O)[C@H](CO)NC(=O)[C@@H]1CCCN1C(=O)[C@@H]1CCCN1C(=O)[C@@H]1CCCN1C(=O)[C@H](C)NC(=O)CNC(=O)[C@H](CO)NC(=O)[C@H](CO)NC(=O)[C@@H]1CCCN1C(=O)CNC(=O)CNC(=O)[C@H](CCCNC(=N)N)NC(=O)[C@@H](NC(=O)[C@H](CC(C)C)NC(=O)[C@H](Cc1c[nH]c2ccccc12)NC(=O)[C@H](C)NC(=O)[C@@H](NC(=O)[C@H](Cc1ccccc1)NC(=O)[C@H](CCC(=O)O)NC(=O)[C@H](CCCNC(=N)N)NC(=O)[C@@H](NC(=O)[C@H](C)NC(=O)[C@H](CCC(N)=O)NC(=O)[C@H](CCC(=O)O)NC(=O)[C@H](CCC(=O)O)NC(=O)[C@H](CC(C)C)NC(=O)[C@H](Cc1ccc(O)cc1)NC(=O)[C@H](CO)NC(=O)[C@H](CO)NC(=O)[C@@H](NC(=O)[C@@H](N)CC(=O)O)C(C)C)C(C)C)[C@@H](C)CC)C(C)C)C(N)=O [compound 69] (H-DVSSYLEEQAVREFIAWLVRGGPSSGAPPPSK(Palmitoyl)-NH2) | 16 nM | 13.7 mg/mL (≈ 3.73 mM) | 
CCCCCCCCCCCCCCCC(=O)N[C@@H](CCC(=O)NCCOCCOCC(=O)NCCCC[C@H](NC(=O)[C@H](CO)NC(=O)[C@@H]1CCCN1C(=O)[C@@H]1CCCN1C(=O)[C@@H]1CCCN1C(=O)[C@H](C)NC(=O)CNC(=O)[C@H](CO)NC(=O)[C@H](CO)NC(=O)[C@@H]1CCCN1C(=O)CNC(=O)CNC(=O)[C@H](CCCNC(=N)N)NC(=O)[C@@H](NC(=O)[C@H](CC(C)C)NC(=O)[C@H](Cc1c[nH]c2ccccc12)NC(=O)[C@H](CCC(=O)O)NC(=O)[C@@H](NC(=O)[C@H](Cc1ccccc1)NC(=O)[C@H](CCC(=O)O)NC(=O)[C@H](CCCNC(=N)N)NC(=O)[C@@H](NC(=O)[C@H](C)NC(=O)[C@H](CCC(N)=O)NC(=O)[C@H](CCC(=O)O)NC(=O)[C@H](CCC(=O)O)NC(=O)[C@H](CC(C)C)NC(=O)[C@H](Cc1ccc(O)cc1)NC(=O)[C@H](CCCNC(=N)N)NC(=O)[C@H](CO)NC(=O)[C@@H](NC(=O)[C@@H](N)CC(=O)O)C(C)C)C(C)C)[C@@H](C)CC)C(C)C)C(=O)O)C(=O)O [compound 16] (H-DVSRYLEEQAVREFIEWLVRGGPSSGAPPPSK([AEEA-γGlu-Palmitoyl])-OH; N-terminus assumed) | 18 nM | > 20 mg/mL | 
CCCCCCCCCCCCCCCC(=O)NCCCC[C@H](NC(=O)[C@H](CO)NC(=O)[C@@H]1CCCN1C(=O)[C@@H]1CCCN1C(=O)[C@@H]1CCCN1C(=O)[C@H](C)NC(=O)CNC(=O)[C@H](CO)NC(=O)[C@H](CO)NC(=O)[C@@H]1CCCN1C(=O)CNC(=O)CNC(=O)[C@H](CCCNC(=N)N)NC(=O)[C@@H](NC(=O)[C@H](CC(C)C)NC(=O)[C@H](Cc1c[nH]c2ccccc12)NC(=O)[C@H](C)NC(=O)[C@@H](NC(=O)[C@H](Cc1ccccc1)NC(=O)[C@H](CCC(=O)O)NC(=O)[C@H](CCCNC(=N)N)NC(=O)[C@@H](NC(=O)[C@H](C)NC(=O)[C@H](CCC(N)=O)NC(=O)[C@H](CCC(=O)O)NC(=O)[C@H](CCC(=O)O)NC(=O)[C@H](CC(C)C)NC(=O)[C@H](Cc1ccc(O)cc1)NC(=O)[C@H](CCCNC(=N)N)NC(=O)[C@H](CO)NC(=O)[C@@H](NC(=O)[C@@H](N)CC(=O)O)C(C)C)C(C)C)[C@@H](C)CC)C(C)C)C(N)=O [compound 73] (H-DVSRYLEEQAVREFIAWLVRGGPSSGAPPPSK(Palmitoyl)-NH2; N-terminus assumed) | 27 nM | < 0.1 mg/mL | 
CCCCCCCCCCCCCCCC(=O)NCCCC[C@H](NC(=O)[C@H](CO)NC(=O)[C@@H]1CCCN1C(=O)[C@@H]1CCCN1C(=O)[C@@H]1CCCN1C(=O)[C@H](C)NC(=O)CNC(=O)[C@H](CO)NC(=O)[C@H](CO)NC(=O)[C@@H]1CCCN1C(=O)CNC(=O)CNC(=O)[C@H](CCCNC(=N)N)NC(=O)[C@@H](NC(=O)[C@H](CC(C)C)NC(=O)[C@H](Cc1c[nH]c2ccccc12)NC(=O)[C@H](CCC(=O)O)NC(=O)[C@@H](NC(=O)[C@H](Cc1ccccc1)NC(=O)[C@H](CCC(=O)O)NC(=O)[C@H](CCCNC(=N)N)NC(=O)[C@@H](NC(=O)[C@H](C)NC(=O)[C@H](CCC(N)=O)NC(=O)[C@H](CCC(=O)O)NC(=O)[C@H](CCC(=O)O)NC(=O)[C@H](CC(C)C)NC(=O)[C@H](Cc1ccc(O)cc1)NC(=O)[C@H](CO)NC(=O)[C@H](CO)NC(=O)[C@@H](NC(=O)[C@@H](N)CC(=O)O)C(C)C)C(C)C)[C@@H](C)CC)C(C)C)C(N)=O [compound 70] (H-DVSSYLEEQAVREFIEWLVRGGPSSGAPPPSK(Palmitoyl)-NH2) |  | > 20 mg/mL | 
